Assay results published in patent US12577247B2 (BUGWORKS RESEARCH, INC., priority 2021, dated 2026).
Where two headings read alike, the source gives them in different places.

How the values were obtained:
hERG potassium channel = target: T1, hERG potassium channel (Homo sapiens, UniProt Q12809); assay: hERG inhibition assay, Qpatch HTX automated electrophysiology; assay type: cell-based; settings: CHO cell line stably expressing hERG; whole-cell patch clamp; room temperature
T1 construct: a Chinese Hamster Ovary cell line stably expressing the full-length hERG potassium channel; expressed in transfected cells; host or cells: Chinese Hamster Ovary cell line
Description: The representative compounds of formula I were tested for inhibition of the human ether a go-go related gene (hERG) K+ channel using Qpatch HTX automated electrophysiology. 6-Point concentration-response curves were generated using three-fold serial dilutions from a maximum final test concentration of […] and the results are presented in Table 3.
Compounds were solubilised to 100 mM in DMSO before dilution in HBPS to 100 μM. […] Electrophysiological recordings were made from a Chinese Hamster Ovary cell line stably expressing the full-length hERG potassium channel. Single cell ionic currents were measured in whole-cell patch clamp configuration at room temperature (21-23° C.) using the Qpatch HTX platform (Sophion). Intracellular solution contained (mM): 120 KF, 20 KCl, 10 EGTA, 10 HEPES and was buffered to pH 7.3. […] Cells were clamped at a holding potential of −80 mV. Cells were stepped to +20 mV for 2 s then −40 mV for 3 s before returning to the holding potential. This sweep was repeated 10 times at 10 s intervals. hERG currents were measured from the tail step and referenced to the holding current. Compounds were then incubated for 2 minutes prior to a second measurement of ion channel current using an identical pulse train.

[1] = Pharmacokinetic study in rats; assay type: in vivo, male Sprague-Dawley (SD) rats; settings: for Vd / clearance / half-life / Cmax / Tmax / bioavailability: male, Sprague-Dawley, plasma; for Vd: read-out: Vss; for Cmax / Tmax: p.o; for Cmax: read-out: Cmax (head Co*/); for Tmax: read-out: Tmax (head Tma); for bioavailability: rat
Description: Intravenous (i.v) and Oral formulations for pharmacokinetic (PK) studies was formulated in different vehicles and excipients to achieve the desirable solubility for intravenous and Oral routes of administration.
Appropriate amount of the test compound was weighed and dissolved in required volume of the vehicles, followed by vertexing for a few seconds to dissolve the compound. Then the solution (or) suspension was sonicated at room temperature for 5 minutes to obtain a visually clear solution and or homogenous suspension. All the formulations were prepared freshly at room temperature before dosing.
The rodent pharmacokinetic studies were carried out in male Sprague-Dawley (SD) rats (8-12 weeks of age, weighing 280±20 g at the time of dosing) and CD1 mice (8-12 weeks of age, weighing 30-35 g body weight at the time of dosing) to estimate the plasma clearance, volume of distribution and terminal half-life, area under curve (AUC) and peak plasma concentration (Cmax) and time of peak plasma concentration (Tmax) following intravenous and oral routes of administration. The detailed experimental design is described in the Table 8 below.
Rats were anaesthetized by Isoflurane anaesthesia. The jugular and femoral veins of rat were cannulated, and the study was performed 48 h post cannulation. At each time point about 100 μL, of rat blood was collected from the jugular vein into a labelled microfuge tube containing 200 mM K2EDTA solution (20 μL, per mL of blood) and equivalent volume of heparinized saline was replaced following sample collection. Similarly, 25 μL, of mice blood was collected from the saphenous vein into a labelled microfuge tube containing 200 mM K2EDTA solution
Serial blood sampling method was used for blood collection. Blood samples were collected at pre-dose, 0.25 h, 0.5, 1, 2, 4, 6, 8 and 24-hours post dose. The blood samples were processed to obtain the plasma samples within 30 min of scheduled sampling time. All plasma samples were stored −70° C. until bioanalysis.
Plasma samples were analysed for a fit-for purpose LC-MS/MS method with a lower limit of quantification. The pharmacokinetic parameters were calculated using the non-compartmental analysis tool of validated Phoenix® WinNonlin® software (Certara, USA version 8.4) with linear up and log down method for estimating AUC.
All animals in intravenous (IV bolus) group were under fed state and animals in oral groups were fasted overnight (min 12 hr) before dose administration and food was provided 4 h post dose administration. All animals were received water ad libitum during the study period. The mean (±SD) pharmacokinetic parameters of Example 13, Example 122b & Example 39 following IV bolus and Oral dose administration in Mice/Rat and Dog is provided in Table-9.

[2] = system: human Peripheral blood mononuclear cells (PBMCs); assay: Cytokine restoration assay in human PBMCs (IL-2, TNF-α) under NECA; assay type: cell-based; settings: PBMC, NECA 5 μM, anti CD3/28 Dynabeads, 48 hours
Text: The ability of the invention compounds disclosed herein to restore the cytokines (IL-2 and TNF-α) release under adenosine agonist (NECA) environment evaluated using human Peripheral blood mononuclear cells (PBMCs). Peripheral blood was collected from healthy adult individuals in vacutainer tube. Peripheral blood mononuclear cells (PBMCs) were isolated via density gradient centrifugation, which uses Ficoll (Histopaque buffer) combined with short, low-speed centrifugation, to separate different cell populations. Diluted defibrinated blood was layered on a Ficoll and centrifuged at 1800 rpm for 20 minutes at 22° C. Differential migration of cells during centrifugation results in the formation of layers containing different cell types. The bottom layer contains erythrocytes. Remaining cells (i.e., lymphocytes, monocytes, and platelets) that are not dense enough to penetrate the Ficoll media layers (densities of 1.0770 g/ml), forms a buffy coat at the interface between the upper plasma layer and the Ficoll media layer. After carefully collected the buffy coat excess of platelets, Ficoll and plasma were removed by washing it with isotonic sterile phosphate buffered saline (PBS) and resulting cell pellet was resuspended in RPMI media with 5% FBS an P/S. The isolated PBMCs were allowed to be conditioned for an hour at 37° C. in a CO2 incubator. These cells were subsequently used for specific downstream assay. Isolated PBMC (3×10^5 cells/200 μl) were plated in 96 well microtiter plate in RPMI media with 5% FBS in presence of 100 units of penicillin plus 100 μg/ml streptomycin. NECA was added at a final concentration of 5 μM, control wells were maintained without NECA suppression (i.e., no NECA control). The assay plates were incubated at 37° C. for 4 hours in a CO2 incubator. Various concentrations of test compounds were added into respective wells in triplicates. Pre-washed anti CD3/28 Dynabeads (2.5 μL) was added for CD4 and CD8 + T-cell stimulation (to obtain a bead-to-cell ratio of 1:1). The assay plate was incubated at 37° C. in 5% CO2 and 20% ambient O2 maximum for 48 hours. At the end of 48 hours, the activated PBMC were harvested, and culture supernatants were used directly for further analysis. Forty-eight hours post treatment, 15 μL of cell-free supernatant was collected and assayed for secreted IL2 using the human Interleukin 2 (hIL2)—LANCE Ultra Detection Kit (Perkin Elmer). Similarly, level of soluble Tumor Necrosis Factor alpha (TNFα) was determined using human TNFα LANCE Ultra Detection Kit (Perkin Elmer). T-FRET signal was measured with Tecan spark multimode plate reader. Data was analyzed by graph-pad prism9. EC50 s of the compounds of Formula (I) in restoration of cytokine release under adenosine agonist from the human PBMCS are presented in Table 2

[3] = Rat, IV bolus, Table 6, read-out: T1/2 (IV bolus) (converted)
[4] = oral, Rat, Table 6, read-out: % F
[5] = oral, Rat, oral vs IV bolus, doses per compound, read-out: % F (bioavailability)
[6] = read-out: IL-2 restoration EC50
[7] = read-out: TNF-α restoration EC50

T1 sequence (Q12809 whole entry): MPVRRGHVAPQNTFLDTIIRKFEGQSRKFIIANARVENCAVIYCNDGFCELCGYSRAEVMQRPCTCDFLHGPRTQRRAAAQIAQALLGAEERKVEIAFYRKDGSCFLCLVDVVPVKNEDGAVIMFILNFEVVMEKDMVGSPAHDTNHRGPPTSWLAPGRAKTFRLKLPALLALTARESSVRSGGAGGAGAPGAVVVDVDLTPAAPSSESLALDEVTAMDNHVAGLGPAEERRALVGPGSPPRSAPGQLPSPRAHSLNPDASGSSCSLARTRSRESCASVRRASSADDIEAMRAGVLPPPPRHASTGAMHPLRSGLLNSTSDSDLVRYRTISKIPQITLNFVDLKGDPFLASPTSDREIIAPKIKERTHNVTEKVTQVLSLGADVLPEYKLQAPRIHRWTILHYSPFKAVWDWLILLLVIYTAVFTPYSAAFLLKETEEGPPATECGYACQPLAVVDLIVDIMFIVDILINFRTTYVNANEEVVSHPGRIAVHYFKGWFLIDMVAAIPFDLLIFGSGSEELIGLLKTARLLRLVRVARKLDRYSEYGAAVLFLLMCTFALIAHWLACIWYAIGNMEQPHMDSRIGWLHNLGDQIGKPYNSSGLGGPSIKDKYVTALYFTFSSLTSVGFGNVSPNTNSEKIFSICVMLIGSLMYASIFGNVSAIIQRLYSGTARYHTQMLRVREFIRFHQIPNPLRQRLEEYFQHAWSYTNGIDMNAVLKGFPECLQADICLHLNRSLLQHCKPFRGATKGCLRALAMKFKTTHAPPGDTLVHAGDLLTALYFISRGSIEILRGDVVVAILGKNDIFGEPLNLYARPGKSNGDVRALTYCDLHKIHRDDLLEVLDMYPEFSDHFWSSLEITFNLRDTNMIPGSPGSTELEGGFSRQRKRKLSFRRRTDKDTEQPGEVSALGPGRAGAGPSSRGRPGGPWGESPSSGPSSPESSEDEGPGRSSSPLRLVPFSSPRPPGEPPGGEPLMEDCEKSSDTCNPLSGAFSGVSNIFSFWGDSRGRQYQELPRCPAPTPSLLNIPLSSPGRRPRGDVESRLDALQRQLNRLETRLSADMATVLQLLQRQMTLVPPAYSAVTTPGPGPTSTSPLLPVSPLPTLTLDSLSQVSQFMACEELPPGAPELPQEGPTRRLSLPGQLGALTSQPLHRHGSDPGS

Total CLsystemic in plasma ([1]; Rat, Table 6) | Vd ([1]; intravenous, Rat, Table 6) | half-life [1, 3] | bioavailability [1, 4] | bioavailability [1, 5] | Distribution relative to TBW ([1]; rats & mice) | Compound | IC50 (hERG potassium channel) | EC50 [2, 6] | EC50 [2, 7] | further results
90 mL/min/kg | 2.4 L/kg | 72 min | 27% | 27% | 2 × TBW | CCc1c(C)nn2c(N)c(C#N)c(NCCc3ccn(C4(CO)CC4)n3)nc12 [Example 39, 7-amino-3-ethyl-5-((2-(1-(1-(hydroxymethyl)cyclopropyl)-1H-pyrazol-3-yl)ethyl)amino)-2-methylpyrazolo[1,5-a] pyrimidine-6-carbonitrile] | > 100000 nM | 4.2 nM | 2.3 nM | Co (head Co*/) ([1]; Rat, i.v, 15 mg/kg): 8676 ng/m; clearance ([1]; iv, Rat, i.v, 15 mg/kg): 90 ± 15 mL/min/kg; Vd ([1]; iv, Rat, i.v, 15 mg/kg): 2.4 L/kg; half-life ([1]; iv, Rat, i.v, 15 mg/kg, read-out: t1/2 (converted)): 72 min; Cmax ([1]; po, Rat, 100 mg/kg): 4100 ng/mL; Tmax ([1]; po, Rat, 100 mg/kg): 12 min; Total CL relative to hepatic clearance ([1]; rats & mice): 1.6 ×
69 mL/min/kg | 1.4 L/kg | 24.6 min | < 1% | < 5% | 2 × TBW | Cc1cccc(CCNc2nc3c(C)c(C)nn3c(N)c2C#N)n1 [Example 13, 7-amino-5-((2-(6-methylpyridin-2-yl)ethyl)amino)-2,3-dimethylpyrazolo[1,5-a]pyrimidine-6-carbonitrile] | > 100000 nM | 5.5 nM | 5.2 nM | Co (head Co*/) ([1]; Rat, i.v, 3 mg/kg): 2242 ng/m; clearance ([1]; iv, Rat, i.v, 3 mg/kg): 69 ± 9 mL/min/kg; Vd ([1]; iv, Rat, i.v, 3 mg/kg): 1.4 L/kg; half-life ([1]; iv, Rat, i.v, 3 mg/kg, read-out: t1/2 (converted)): 24 min; Cmax ([1]; po, Rat, 10 mg/kg): 4.2 ng/mL; Tmax ([1]; po, Rat, 10 mg/kg): 12 min; bioavailability ([1]; po, Rat, oral vs IV bolus, doses per compound, read-out: % F (bioavailability)): < 1%
78 mL/min/kg | 1.6 L/kg | 19.8 min | 21% |  |  | CCc1c(C)nn2c(N)c(C#N)c(NCCc3ccn(C4COCC4CO)n3)nc12 (single isomer, unassigned; (-)) [Example 122b, (−)-7-amino-3-ethyl-5-((2-(1-(4-(hydroxymethyl)tetrahydrofuran-3-yl)-1H-pyrazol-3-yl)ethyl)amino)-2-methyl pyrazolo[1,5-a]pyrimidine-6-carbonitrile] | > 100000 nM | 1.4 nM | 1.2 nM | Total plasma systemic clearance (CL) relative to hepatic blood flow ([1]; Rat, IV bolus): 1.3 ×; Co (head Co*/) ([1]; Rat, i.v, 5 mg/kg): 4169 ng/m; clearance ([1]; iv, Rat, i.v, 5 mg/kg): 78 ± 17 mL/min/kg; Vd ([1]; iv, Rat, i.v, 5 mg/kg): 1.58 L/kg; half-life ([1]; iv, Rat, i.v, 5 mg/kg, read-out: t1/2 (converted)): 18 min; Cmax ([1]; po, Rat, 30 mg/kg): 983 ng/mL; Tmax ([1]; po, Rat, 30 mg/kg): 30 min; bioavailability ([1]; oral, 30 mg/kg, Rat, oral vs IV bolus, doses per compound, read-out: % F (bioavailability)): 21%
